Measurements from patent US20230356105A1, “TETRAAZADODECANE BASED CHELATING AGENTS FOR SEPARATION OF RARE EARTH ELEMENTS AND METHOD THEREFOR” (Ustav Organicke Chemie a Biochemie AV CR V.V.I., priority 2020, published 2023).

Assay: Use of additives to improve separation of Nd/Dy mixture by precipitation with L5 (Example 18)
Type: physicochemical
Conditions: 11 mM L5
Procedure: Stock solutions were pipetted into plastic 1×1 cm cuvettes to prepare reaction mixtures with concentrations as follows: • 1. […] 5 mM NdCl3 • 3. 5 mM DyCl3 • 4. 500 mM MOPS pH=7 • 5. the additive of interest, in a variable concentration; if possible, stock solutions were prepared from Na^+ salt forms of the compound; if not, the stock solutions were titrated by NaOH/HCl to pH=7 prior to addition (see Table 12 for additives and concentrations)
These aqueous reaction mixtures, each prepared to a total volume of 2.0 mL with the addition of water as necessary, were mixed by the use of a PTFE-coated stir bar on a magnetic stirrer. The cuvettes were sealed with transparent tape to prevent evaporation overnight. The reaction mixtures were stirred for 18 hours, at which point 500 μL aliquots of each reaction mixture were transferred into plastic 2 mL Eppendorf tubes and centrifuged. The supernatants were carefully pipetted out and transferred to a new set of tubes. The precipitate was dissolved by addition of 500 μL 1M HCl. The absolute concentration of Nd and Dy in each supernatant and precipitate was determined by ICP-OES.

Precipitate concentration [mM] Dy (additive 20 mM) [mM] | Precipitate concentration [mM] Nd (additive 20 mM) [mM] | Supernatant concentration [mM] Dy (additive 20 mM) [mM] | Supernatant concentration [mM] Nd (additive 20 mM) [mM] | SMILES | Precipitate concentration [mM] Dy (additive 100 mM) [mM] | Precipitate concentration [mM] Nd (additive 100 mM) [mM] | Supernatant concentration [mM] Dy (additive 100 mM) [mM] | Supernatant concentration [mM] Nd (additive 100 mM) [mM] | Precipitate concentration [mM] Dy (additive 500 mM) [mM] | Precipitate concentration [mM] Nd (additive 500 mM) [mM] | Supernatant concentration [mM] Dy (additive 500 mM) [mM] | Supernatant concentration [mM] Nd (additive 500 mM) [mM] | Precipitate concentration [mM] Dy (additive 1000 mM) [mM] | Precipitate concentration [mM] Nd (additive 1000 mM) [mM] | Supernatant concentration [mM] Dy (additive 1000 mM) [mM] | Supernatant concentration [mM] Nd (additive 1000 mM) [mM] | Precipitate concentration [mM] Dy (additive 250 mM) [mM] | Precipitate concentration [mM] Nd (additive 250 mM) [mM] | Supernatant concentration [mM] Dy (additive 250 mM) [mM] | Supernatant concentration [mM] Nd (additive 250 mM) [mM] | other results
– | – | – | – | O=[N+]([O-])O [nitrate] | 4.27 | 4.39 | 0.36 | 0.14 | 4.16 | 4.46 | 0.82 | 0.14 | 3.23 | 4.61 | 1.72 | 0.15 | – | – | – | – | Precipitate concentration [mM] Dy (additive 200 mM): 3.89 mM; Precipitate concentration [mM] Nd (additive 200 mM): 3.97 mM; Supernatant concentration [mM] Dy (additive 200 mM): 0.41 mM; Supernatant concentration [mM] Nd (additive 200 mM): 0.15 mM
0 | 0 | 5 | 5 | O=C(O)c1ccccn1 [picolinic acid] | – | – | – | – | – | – | – | – | – | – | – | – | – | – | – | – | –
1.13 | 4.52 | 3.77 | 0.47 | O=C(O)[C@@H](O)c1ccccc1 [s-mandelic acid] | – | – | – | – | – | – | – | – | – | – | – | – | – | – | – | – | –
4.36 | 4.88 | 0.42 | 0.07 | O=C(O)c1ccccc1O [salicylic acid] | – | – | – | – | – | – | – | – | – | – | – | – | – | – | – | – | –
– | – | – | – | O=S(=O)(O)O [sulfate] | 4.52 | 4.90 | 0.34 | 0.07 | 3.57 | 4.30 | 1.00 | 0.59 | 3.35 | 4.61 | 1.20 | 0.34 | 4.09 | 4.96 | 0.47 | 0.08 | –
– | – | – | – | N#C[S-].[Na+] [thiocyanate] | 4.46 | 4.66 | 0.31 | 0.14 | 4.16 | 4.65 | 0.72 | 0.36 | 3.26 | 4.63 | 1.70 | 0.41 | – | – | – | – | Precipitate concentration [mM] Dy (additive 200 mM): 4.42 mM; Precipitate concentration [mM] Nd (additive 200 mM): 4.60 mM; Supernatant concentration [mM] Dy (additive 200 mM): 0.51 mM; Supernatant concentration [mM] Nd (additive 200 mM): 0.41 mM

SMILES | Precipitate concentration [mM] Dy (additive 20 mM) [mM] | Precipitate concentration [mM] Nd (additive 20 mM) [mM] | Supernatant concentration [mM] Dy (additive 20 mM) [mM] | Supernatant concentration [mM] Nd (additive 20 mM) [mM] | Precipitate concentration [mM] Dy (additive 100 mM) [mM] | Precipitate concentration [mM] Nd (additive 100 mM) [mM] | Supernatant concentration [mM] Dy (additive 100 mM) [mM] | Supernatant concentration [mM] Nd (additive 100 mM) [mM] | Precipitate concentration [mM] Dy (additive 500 mM) [mM] | Precipitate concentration [mM] Nd (additive 500 mM) [mM] | Supernatant concentration [mM] Dy (additive 500 mM) [mM] | Supernatant concentration [mM] Nd (additive 500 mM) [mM] | Precipitate concentration [mM] Dy (additive 1000 mM) [mM] | Precipitate concentration [mM] Nd (additive 1000 mM) [mM] | Supernatant concentration [mM] Dy (additive 1000 mM) [mM] | Supernatant concentration [mM] Nd (additive 1000 mM) [mM] | Precipitate concentration [mM] Dy (additive 250 mM) [mM] | Precipitate concentration [mM] Nd (additive 250 mM) [mM] | Supernatant concentration [mM] Dy (additive 250 mM) [mM] | Supernatant concentration [mM] Nd (additive 250 mM) [mM] | other results
OB(O)c1ccccc1 [phenylboronic acid] | 4.33 | 5.02 | 0.31 | 0.08 | – | – | – | – | – | – | – | – | – | – | – | – | 3.36 | 4.12 | 1.22 | 0.87 | –
c1ccncc1 [pyridine] | 4.33 | 4.90 | 0.28 | 0.06 | – | – | – | – | – | – | – | – | – | – | – | – | 4.02 | 4.67 | 0.41 | 0.09 | –
